Common to all, as to assay type: cell-based
Test [1] deals with T1, human GIP receptor (Homo sapiens, UniProt P48546).
T1 sequence (P48546 22-466): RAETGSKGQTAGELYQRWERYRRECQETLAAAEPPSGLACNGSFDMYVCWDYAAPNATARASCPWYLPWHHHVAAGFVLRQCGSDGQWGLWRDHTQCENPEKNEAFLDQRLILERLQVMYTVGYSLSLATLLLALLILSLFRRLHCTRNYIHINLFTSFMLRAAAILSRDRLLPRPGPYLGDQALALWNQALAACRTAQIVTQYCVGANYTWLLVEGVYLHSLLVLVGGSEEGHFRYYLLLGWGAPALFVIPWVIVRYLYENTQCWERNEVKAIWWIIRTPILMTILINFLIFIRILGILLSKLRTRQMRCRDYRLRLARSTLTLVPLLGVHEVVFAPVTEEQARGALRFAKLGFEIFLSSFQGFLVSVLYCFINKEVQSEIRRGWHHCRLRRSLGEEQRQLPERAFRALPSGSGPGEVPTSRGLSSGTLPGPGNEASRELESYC
The experiment in a line: cAMP accumulation, agonism (DiscoveRx HitHunter cAMP XS assay). Details: host or cells: COS-7 (transient, calcium phosphate; pCMV-Script vector). As to conditions: COS-7, read-out: cAMP agonism, Emax. As to the method:
(§1) Transient transfected COS-7 cells expressing the human GIP receptor were seeded in white 96-well plates with a density of 3.5*10^4/well. The day after, the cells were washed twice with Hepes buffered saline (HBS) buffer and incubated with HBS and 1 mM 3-isobutyl-1-methylxanthine (IBMX) for 30 min at 37° C. To test for agonistic properties, ligands were added and incubated for 30 min at 37° C. In order to test for antagonistic properties, the cells were preincubated with the antagonists for 10 min prior to the addition of the agonist and subsequent incubated for 20 additional min. The HitHunter™ cAMP XS assay (DiscoveRx) was carried out according to the manufacturer's instructions.
(§2) In order to develop a GIP receptor antagonist with improved antagonistic properties, individual amino acid substitutions were conducted on GIP(3-30)NH2 and in particular at positions: 16, 18, 30 or 3, 16, 18, 30. The obtained peptides were lipidated at position 18 directly or via a linker. Both the agonistic and antagonistic profiles of the compounds were tested in cAMP accumulation experiments done in transiently transfected COS-7 cells expressing the human GIP receptor. To investigate if these mutated analogues still retained their antagonistic properties, their ability to inhibit a GIP-mediated cAMP response corresponding to 50-80% of maximum activation was examined.
(cAMP levels reflect the balance of adenylyl cyclase and phosphodiesterase activity.)

Test [2] addresses T1, human GIP receptor. The experiment in a line: cAMP agonism (CisBio cAMP Dynamic 2 HTRF assay). As to conditions: HEK293, read-out: cAMP agonism, % Efficacy, Table 1C, HEK-293 cells. Here is the method: To test for agonistic properties at the GIP receptor, compounds were diluted and added to cells as described above and incubated for 30 min at 37° C. The resulting increase in intracellular cAMP was determined using the CisBio cAMP Dynamic 2 HTRF Assay Kit as described above.
For orientation: TR-FRET usually uses a lanthanide donor and a delayed reading to cut background.

For test [3], the target named is T1, human GIP receptor. The experiment in a line: cAMP accumulation, antagonism (DiscoveRx HitHunter cAMP XS assay). On the set-up: host or cells: COS-7 (transient, calcium phosphate; pCMV-Script vector). As to conditions: Table 2, truncated GIP antagonists. Here is the method: as §1, §2
Test [4] has as its target T1, human GIP receptor. The experiment in a line: cAMP antagonism (CisBio cAMP Dynamic 2 HTRF assay). Details: pCMV-Script vector. As to conditions: Table 1C; CisBio; HEK-293 cells. As to the method:
The in vitro functional activity of compounds towards human GIP receptor can also be determined in HEK-293 cells transiently expressing the receptor. On the day of the assay, cells were resuspended in HBSS buffer (Gibco, 14025-50) supplemented with 20 mM HEPES (Gibco, 15630-106), 0,1% Pluronic F-68 (Gibco, 24040-032) and 0,1% casein (Sigma, C4765), and plated in 384-well plates at a density of 5000 cells/well. The GIP peptide analogues of the present disclosure were diluted in HBSS buffer supplemented with 20 mM HEPES, 0,1% pluronic, 0,1% casein and 500 uM IBMX. […] The resulting decrease in intracellular cAMP was quantitatively determined using the CisBio cAMP Dynamic 2 HTRF Assay Kit. The assay is based on a competition between native cAMP produced by cells and cAMP labeled with the dye d2 for binding to a cryptate labeled antibody. The specific signal (i.e. energy transfer signal) is inversely proportional to the concentration of cAMP in the sample.
The cAMP-d2 conjugate and the antibody anti-cAMP-Cryptate, both diluted in lysis buffer provided in the kit, were added to the cells according to the manufacturer's protocol. The resulting competitive assay was incubated for 60 minutes at room temperature, and the signal was detected by using a PerkinElmer Envision® instrument with excitation at 320 nm and emission at 665 nm and 620 nm. The HTRF ratio (emission at 665 nm/620 nm*10,000) is inversely proportional to the amount of cAMP present and is converted to nM cAMP per well using a cAMP standard curve. The dose-response curves were fitted using the non-linear regression analysis (four-logistic parameter equation) in GraphPad Prism, whereby pIC50 values were estimated.

Where a SMILES comes first, the peptide text is derived from it. Where no end group is shown, it is not given here. The star is where a group is joined. C16 diacid = O=C(O)CCCCCCCCCCCCCCC(=O)*

Turning to `CC[C@H](C)[C@H](NC(=O)[C@H](CO)NC(=O)[C@H](Cc1ccc(O)cc1)NC(=O)[C@H](CC(=O)O)NC(=O)[C@H](CO)NC(=O)[C@@H](NC(=O)[C@H](Cc1ccccc1)NC(=O)[C@@H](N)[C@@H](C)O)[C@@H](C)CC)C(=O)N[C@@H](C)C(=O)N[C@@H](CC(C)C)C(=O)N[C@@H](CC(=O)O)C(=O)N[C@@H](CCCNC(=N)N)C(=O)N[C@H](C(=O)N[C@@H](CCCCNC(=O)CC[C@H](NC(=O)COCCOCCNC(=O)CCCCCCCCCCCCCCC(=O)O)C(=O)O)C(=O)N[C@@H](CCC(N)=O)C(=O)N[C@@H](CCC(N)=O)C(=O)N[C@@H](CC(=O)O)C(=O)N[C@@H](Cc1ccccc1)C(=O)N[C@H](C(=O)N[C@@H](CC(N)=O)C(=O)N[C@@H](Cc1c[nH]c2ccccc12)C(=O)N[C@@H](CC(C)C)C(=O)N[C@@H](CC(C)C)C(=O)N[C@@H](C)C(=O)N[C@@H](CCC(N)=O)C(=O)N[C@@H](CCCNC(=N)N)C(N)=O)C(C)C)[C@@H](C)CC` [AT234] (HELM PEPTIDE1{T.F.I.S.D.Y.S.I.A.L.D.R.I.K.Q.Q.D.F.V.N.W.L.L.A.Q.R.[am]}|PEPTIDE2{[O=C(O)CCCCCCCCCCCCCCC(=O)[*:2]].[O=C(COCCOCCN[*:1])[*:2]].[gGlu]}$PEPTIDE1,PEPTIDE2,14:R3-3:R2$$$V2.0; N-terminus assumed), the Emax at human GIP receptor [1] was 26%; at human GIP receptor [2], 0%.

Regarding `CC[C@H](C)[C@H](NC(=O)[C@H](CO)NC(=O)[C@H](Cc1ccc(O)cc1)NC(=O)[C@H](CC(=O)O)NC(=O)[C@H](CO)NC(=O)[C@@H](NC(=O)[C@H](Cc1ccccc1)NC(=O)[C@@H](NC(=O)CNC(=O)CN)[C@@H](C)O)[C@@H](C)CC)C(=O)N[C@@H](C)C(=O)N[C@@H](CCSC)C(=O)N[C@@H](CC(=O)O)C(=O)N[C@@H](CCCNC(=N)N)C(=O)N[C@H](C(=O)N[C@@H](CCCCNC(=O)CCCCCCCCCCCCCCC(=O)O)C(=O)N[C@@H](CCC(N)=O)C(=O)N[C@@H](CCC(N)=O)C(=O)N[C@@H](CC(=O)O)C(=O)N[C@@H](Cc1ccccc1)C(=O)N[C@H](C(=O)N[C@@H](CC(N)=O)C(=O)N[C@@H](Cc1c[nH]c2ccccc12)C(=O)N[C@@H](CC(C)C)C(=O)N[C@@H](CC(C)C)C(=O)N[C@@H](C)C(=O)N[C@@H](CCC(N)=O)C(=O)N[C@@H](CCCNC(=N)N)C(=O)O)C(C)C)[C@@H](C)CC` [AT257] (H-GGTFISDYSIAMDRIK(C16 diacid)QQDFVNWLLAQR-OH; N-terminus assumed), the Emax on human GIP receptor [1] came to 4%; at human GIP receptor [2] it was 5%.

Consider `CC[C@H](C)[C@H](N)C(=O)N[C@@H](CO)C(=O)N[C@@H](CC(=O)O)C(=O)N[C@@H](Cc1ccc(O)cc1)C(=O)N[C@@H](CO)C(=O)N[C@H](C(=O)N[C@@H](C)C(=O)N[C@@H](CCSC)C(=O)N[C@@H](CC(=O)O)C(=O)N[C@@H](CCCCN)C(=O)N[C@H](C(=O)N[C@@H](CCCCNC(=O)CCCCCCCCCCCCCCC(=O)O)C(=O)N[C@@H](CCC(N)=O)C(=O)N[C@@H](CCC(N)=O)C(=O)N[C@@H](CC(=O)O)C(=O)N[C@@H](Cc1ccccc1)C(=O)N[C@H](C(=O)N[C@@H](CC(N)=O)C(=O)N[C@@H](Cc1c[nH]c2ccccc12)C(=O)N[C@@H](CC(C)C)C(=O)N[C@@H](CC(C)C)C(=O)N[C@@H](C)C(=O)N[C@@H](CCC(N)=O)C(=O)N[C@@H](CCCCN)C(N)=O)C(C)C)[C@@H](C)CC)[C@@H](C)CC` [AT354] (H-ISDYSIAMDKIK(C16 diacid)QQDFVNWLLAQK-NH2; N-terminus assumed), for which the “cAMP antagonism, % inhib” value on human GIP receptor [3] amounted to 100.0%; on human GIP receptor [4], 91%. The IC50 at human GIP receptor [3] (cAMP antagonism, nM (IC50)) was 10 nM. For the same compound, the Emax on human GIP receptor [2] turned out to be 0%.

Consider `CC[C@H](C)[C@H](NC(=O)[C@H](CO)NC(=O)[C@H](Cc1ccc(O)cc1)NC(=O)[C@H](CC(=O)O)NC(=O)[C@@H](N)CO)C(=O)N[C@@H](C)C(=O)N[C@@H](CCSC)C(=O)N[C@@H](CC(=O)O)C(=O)N[C@@H](CCCCN)C(=O)N[C@H](C(=O)N[C@@H](CCCCNC(=O)CCCCCCCCCCCCCCC(=O)O)C(=O)N[C@@H](CCC(N)=O)C(=O)N[C@@H](CCC(N)=O)C(=O)N[C@@H](CC(=O)O)C(=O)N[C@@H](Cc1ccccc1)C(=O)N[C@H](C(=O)N[C@@H](CC(N)=O)C(=O)N[C@@H](Cc1c[nH]c2ccccc12)C(=O)N[C@@H](CC(C)C)C(=O)N[C@@H](CC(C)C)C(=O)N[C@@H](C)C(=O)N[C@@H](CCC(N)=O)C(=O)N[C@@H](CCCCN)C(N)=O)C(C)C)[C@@H](C)CC` [AT355] (H-SDYSIAMDKIK(C16 diacid)QQDFVNWLLAQK-NH2; N-terminus assumed), for which the “cAMP antagonism, % inhib” value at human GIP receptor [3] is on record as 100.0%; at human GIP receptor [4], 65%. Moreover, the Emax on human GIP receptor [2] was determined as 0%.

With `CC[C@H](C)[C@H](NC(=O)[C@H](CO)NC(=O)[C@@H](N)Cc1ccc(O)cc1)C(=O)N[C@@H](C)C(=O)N[C@@H](CCSC)C(=O)N[C@@H](CC(=O)O)C(=O)N[C@@H](CCCCN)C(=O)N[C@H](C(=O)N[C@@H](CCCCNC(=O)CCCCCCCCCCCCCCC(=O)O)C(=O)N[C@@H](CCC(N)=O)C(=O)N[C@@H](CCC(N)=O)C(=O)N[C@@H](CC(=O)O)C(=O)N[C@@H](Cc1ccccc1)C(=O)N[C@H](C(=O)N[C@@H](CC(N)=O)C(=O)N[C@@H](Cc1c[nH]c2ccccc12)C(=O)N[C@@H](CC(C)C)C(=O)N[C@@H](CC(C)C)C(=O)N[C@@H](C)C(=O)N[C@@H](CCC(N)=O)C(=O)N[C@@H](CCCCN)C(N)=O)C(C)C)[C@@H](C)CC` [AT357] (H-YSIAMDKIK(C16 diacid)QQDFVNWLLAQK-NH2; N-terminus assumed), the “cAMP antagonism, % inhib” value on human GIP receptor [3] turned out to be 100.0%; at human GIP receptor [4], 40%. Further, on human GIP receptor [2], the Emax amounted to 0%.

With “AT356: GIP 9-30, C-term NH2, C16-diacid at position 18, [H18K] (DYSIAMDKIK(C16 diacid)QQDFVNWLLAQK-NH2; N-terminus assumed; SMILES CC[C@H](C)[C@H](NC(=O)[C@H](CO)NC(=O)[C@H](Cc1ccc(O)cc1)NC(=O)[C@@H](N)CC(=O)O)C(=O)N[C@@H](C)C(=O)N[C@@H](CCSC)C(=O)N[C@@H](CC(=O)O)C(=O)N[C@@H](CCCCN)C(=O)N[C@H](C(=O)N[C@@H](CCCCNC(=O)CCCCCCCCCCCCCCC(=O)O)C(=O)N[C@@H](CCC(N)=O)C(=O)N[C@@H](CCC(N)=O)C(=O)N[C@@H](CC(=O)O)C(=O)N[C@@H](Cc1ccccc1)C(=O)N[C@H](C(=O)N[C@@H](CC(N)=O)C(=O)N[C@@H](Cc1c[nH]c2ccccc12)C(=O)N[C@@H](CC(C)C)C(=O)N[C@@H](CC(C)C)C(=O)N[C@@H](C)C(=O)N[C@@H](CCC(N)=O)C(=O)N[C@@H](CCCCN)C(N)=O)C(C)C)[C@@H](C)CC)”, the “cAMP antagonism, nM (IC50)” value with human GIP receptor [3] is “No antagonism”.

The IC50 is the midpoint of a concentration-inhibition curve.

The values are drawn from US12187773B2, “Modified GIP peptide analogues” (Antag Therapeutics ApS, priority 2018, dated 2025).
